Like-named read-outs stand apart in the source and are kept apart here.

The target in experiment [1] is T1, human 11β-HSD1 (Homo sapiens, UniProt P28845).
T1 construct: expressed in transfected cells; sonicated cell suspension used as lysate
As to the kind of experiment: Human 11β-HSD1 enzyme inhibitory activity (lysate of stably expressing HEK293 cells, cortisol by competitive ELISA). The format is biochemical. As to the method: (§1) Human 11β-HSD1-, human 11β-HSD2-Gene Clonings and Establishment of Stably Expressing Cells
(§2) Human 11β-HSD1- and human 11β-HSD2-gene clonings were conducted using as a template a reverse transcription product of human-liver RNA and human-kidney RNA (CELL APPLICATIONS) respectively, by means of PCR cloning with reference to nucleotide sequences of Genbank Accession No. NM_00.5525 and NM 000196. The obtained PCR products of about 0.9 kbp and 1.2 kbp were subcloned into an expression vector pcDNA3.1+/Zeo (Invitrogen).
(§3) Human 11β-HSD1- and human 11β-HSD2-expressing vectors were transfected into human kidney-derived cell line, HEK293 cells, using a transfection reagent, jet PEI (Funakoshi). Selection was conducted with 400 μg/mL of zeocine (Invitrogen) to provide stably-expressing-cell clones. The stably expressing cells were suspended in buffer solution A (20 mmol/L Tris-HCl, pH 7.4, 250 mmol/L sucrose, 1 mmol/L EGTA, 1 mmol/L EDTA, 1 mmol/L MgCl2), sonicated, and then stored at −80° C.
(§4) An enzymatic reaction was conducted using a polystyrene 96-well plate. Each well was added with 1 μL of a test agent dissolved in DMSO and then diluted (0.003 to 3 mmol/L), and further added with 10 μL of cell lysate diluted to a concentration of 0.1 mg/mL to 0.4 mg/mL. Next, 90 μL of buffer solution A containing substrate (100 nmol/L cortisone) and coenzyme (400 μmol/L NADPH) was added and the mixture was incubated at 37° C. for 1 hour. The enzymatic reaction was stopped by treating at 95° C. for 3 minutes. Cortisol that was present in the reaction solution was determined by a competitive ELISA shown below.
Anti-rabbit IgG antibody (Chemi-con) diluted to 2 μg/mL with carbonate buffer solution (pH 9.6) was added in 100 μL each to a 96-well immuno plate (Nunc) and immobilized by incubating at 4° C. overnight. 50 μL of enzymatic reaction solution was put onto the plates, and further, anti-cortisol antibody (Cosmo Bio) and HRP-labeled cortisol (Cosmo Bio), diluted with buffer solution B (25 mmol/L Tris-HCl pH 7.4, 137 mmol/L NaCl, 2.68 mmol/L KCl), were added in 50 μL respectively and incubated at 4° C. overnight. After washed three times with buffer solution B containing 0.05% Tween 20, the plates were allowed to develop color by adding 100 μL of color reagent, TMB (Moss). The color reaction was stopped by 25 μL of 1 mol/L sulfuric acid and the absorbance was determined at 450 nm with a microplate reader (Molecular Device, VersaMax).
The values of human 11β-HSD1 and human 11β-HSD2 activities were subtracted from 100, and the resultant values were regarded as the respective 11β-HSD inhibition rates of example compounds. For each example compound, the value of 50% inhibitory concentration (IC50) was calculated from 11β-HSD inhibition rates at plural concentrations, for 11β-HSD1 and 11β-HSD2 activities.
A general note: An ELISA detects its analyte on a solid surface through an enzyme-linked reagent.

The target in experiment [2] is T2, human 11β-HSD2 (Homo sapiens, UniProt P80365).
T2 construct: expressed in transfected cells; sonicated cell suspension used as lysate
T2 sequence (P80365 1-405): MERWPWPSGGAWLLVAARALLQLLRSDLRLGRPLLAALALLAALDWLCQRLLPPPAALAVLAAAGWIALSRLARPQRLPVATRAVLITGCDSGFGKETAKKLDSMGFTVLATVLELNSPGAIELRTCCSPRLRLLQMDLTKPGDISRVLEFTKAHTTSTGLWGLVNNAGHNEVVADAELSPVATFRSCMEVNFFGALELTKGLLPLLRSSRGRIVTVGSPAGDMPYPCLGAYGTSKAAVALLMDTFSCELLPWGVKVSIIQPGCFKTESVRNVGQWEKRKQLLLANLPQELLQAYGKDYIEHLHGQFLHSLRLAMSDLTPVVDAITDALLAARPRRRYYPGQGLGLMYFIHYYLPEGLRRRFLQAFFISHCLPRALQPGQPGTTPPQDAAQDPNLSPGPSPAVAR
The experiment is described as follows: Human 11β-HSD2 enzyme inhibitory activity (lysate of stably expressing HEK293 cells, cortisol by competitive ELISA). It is filed as biochemical. The note with it: human 11β-HSD2, HEK293 cell lysate, 37° C. 1 hour. The protocol: as §1, §2, §3, §4
Anti-rabbit IgG antibody (Chemi-con) diluted to 2 μg/mL with carbonate buffer solution (pH 9.6) was added in 100 μL each to a 96-well immuno plate (Nunc) and immobilized by incubating at 4° C. overnight. […] The color reaction was stopped by 25 μL of 1 mol/L sulfuric acid and the absorbance was determined at 450 nm with a microplate reader (Molecular Device, VersaMax). […]

[3] abbreviates: human 11β-HSD1, HEK293 cell lysate, 100 nmol/L cortisone, 400 μmol/L NADPH, 37° C. 1 hour, read-out: IC50(μM) HSD1.

T1 sequence (P28845 whole entry): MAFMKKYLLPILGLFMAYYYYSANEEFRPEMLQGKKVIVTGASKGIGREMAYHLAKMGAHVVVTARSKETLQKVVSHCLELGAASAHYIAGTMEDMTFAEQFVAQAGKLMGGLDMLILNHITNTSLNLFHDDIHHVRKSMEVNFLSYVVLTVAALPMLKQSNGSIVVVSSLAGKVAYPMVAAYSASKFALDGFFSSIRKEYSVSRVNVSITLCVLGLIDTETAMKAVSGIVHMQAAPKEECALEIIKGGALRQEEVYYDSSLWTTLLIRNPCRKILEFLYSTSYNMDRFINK

Take `O=C(COc1ccccc1[N+](=O)[O-])N1CCC2(CC1)C(=O)Nc1ccccc12` [Example 12, 1′-{2-(2-nitrophenoxy)acetyl}spiro(indole-3,4′-piperidine)-2(1H)-one]: the IC50 in experiment [1] (setting [3]) amounted to 1 µM.

Turning to `O=C(CSc1ccccc1C(F)(F)F)N1CCC2(CC1)C(=O)Nc1ccccc12` [Example 70, 1′-{2-(2-trifluoromethylphenylthio)acetyl}spiro(indole-3,4′-piperidine)-2(1H)-one], the IC50 in experiment [1] (setting [3]) came out at 0.16 µM.

As for `O=C(COc1ccccc1Br)N1CCC2(CC1)C(=O)Nc1ccccc12` [Example 49], the IC50 in experiment [1] (setting [3]) is 0.41 µM; in experiment [2], > 30 µM.

Take `CCN1C(=O)C2(CCN(C(=O)COc3ccccc3C(F)(F)F)CC2)c2ccccc21` [Example 80, 1-ethyl-1′-{2-(2-trifluoromethylphenoxy)acetyl}spiro(indole-3,4′-piperidine)-2-one]: in experiment [1] (setting [3]), the IC50 turned out to be 0.67 µM.

Take `CC(C)(C)c1ccccc1OCC(=O)N1CCC2(CC1)C(=O)Nc1ccccc12` [Example 52, 1′-{2-(2-t-butylphenoxy)acetyl}spiro(indole-3,4′-piperidine)-2(1H)-one]: the IC50 in experiment [1] (setting [3]) was determined as 0.73 µM.

Turning to `O=C(COc1cccc(Cl)c1Cl)N1CCC2(CC1)C(=O)Nc1ccccc12` [Example 40, 1′-{2-(2,3-dichlorophenoxy)acetyl}spiro(indole-3,4′-piperidine)-2(1H)-one], the IC50 in experiment [1] (setting [3]) was found to be 0.96 µM.

In the case of `O=C(N1CCC2(CC1)C(=O)Nc1ccccc12)C1(c2ccc(Cl)cc2)CC1` [compound A, 1′-{[1-(4-Chlorophenyl)cyclopropyl]carbonyl}spiro[indole-3, 4′-piperidin]-2(1H)-one, reference compound], the IC50 in experiment [1] (compound A actually synthesized and measured by the applicant, read-out: 50% inhibitory concentration (IC50) for 11β-HSD1 activity) was 3 µM.

Turning to `O=C(COc1ccccc1I)N1CCC2(CC1)C(=O)Nc1ccccc12` [Example 10, 1′-{2-(2-iodophenoxy)acetyl}spiro(indole-3,4′-piperdine)-2 (1H)-one], the values for the IC50 in experiment [1] (setting [3]) and in experiment [2] were 0.087 µM and > 30 µM, respectively.

Consider `O=C(COc1ccccc1C(F)(F)F)N1CCC2(CC1)C(=O)Nc1ccccc12` [Example 1, 1′-{2-(2-trifluoromethylphenoxy)acetyl}spiro(indole-3,4′-piperidine)-2(1H)-one], for which, in experiment [1] (setting [3]), the IC50 turned out to be 0.033 µM.

As for `CCCN1C(=O)C2(CCN(C(=O)COc3ccccc3C(F)(F)F)CC2)c2ccccc21` [Example 81, 1-propyl-1′-{2-(2-trifluoromethylphenoxy)acetyl}spiro(indole-3,4′-piperidine)-2-one], in experiment [1] (setting [3]), the IC50 was determined as 0.43 µM.

For `CN1C(=O)C2(CCN(C(=O)COc3ccccc3C(F)(F)F)CC2)c2ccccc21` [Example 76, 1-methyl-1′-{2-(2-trifluoromethylphenoxy)acetyl}spiro(indole-3,4′-piperidine)-2-one], the IC50 in experiment [1] (setting [3]) was 0.068 µM; in experiment [2], > 30 µM.

With `O=C(COc1ccccc1C(F)(F)F)N1CCC2(CC1)C(=O)N(C1CC1)c1ccccc12` [Example 84, 1-cyclopropyl-1′-{2-(2-trifluoromethylphenoxy)acetyl}spiro(indole-3,4′-piperidine)-2-one], in experiment [1] (setting [3]), the IC50 worked out at 0.72 µM.

For `Cc1ccccc1OCC(=O)N1CCC2(CC1)C(=O)Nc1ccccc12` [Example 2, 1′-{2-(2-methylphenoxy)acetyl}spiro(indole-3,4′-piperidine)-2(1H)-one], the IC50 in experiment [1] (setting [3]) is 0.82 µM.

The values are drawn from US20080306102A1, “NOVEL SPIROOXYINDOLE COMPOUNDS AND DRUGS CONTAINING SAME” (KOWA CO., LTD., priority 2007, published 2008).
